Consider six compounds from US20260283149A1, “DEVELOPMENT AND APPLICATION OF SYNTHETIC INHIBITORS OF PHOTOSYNTHESIS” (University of Florida Research Foundation, Incorporated, priority 2023, published 2026).

Assay [1] concerns Synechocystis sp. PCC6803 cells. In words: Growth inhibition of Synechocystis sp. PCC 6803 in liquid BG-11 medium. Format: cell-based. As to conditions: for inhibitory activity on growth of Synechocystis sp. PCC6803 cells (overall grade): tested at 10 and 25 microM; for growth inhibition of Synechocystis sp. PCC6803 cells: liquid BG-11 medium with glucose, growth monitored at 700 nm. On the procedure: (§1) FIG. 11. Growth inhibition of Arabidopsis and Synechocystis by duroquinone, the unprenylated structural analogue of methyl-plastoquinone-9. (A) Structure of duroquinone. (B) Seven-day-old Arabidopsis plants (Col-0) grown on MS medium containing 1% sucrose (w/v) and 0, 10, 25, 50, or 100 μM duroquinone in 12-hour days (110 μE m^−2 s^−1) at 22° C. (C) Growth curve of Synechocystis sp. PCC 6803 at 30° C. in liquid BG-11 medium containing glucose, and with or without duroquinone. Data are means of three biological replicates±SE. Asterisks indicate significant differences (0 μM vs. 10 μM duroquinone) as determined by Fisher's test (p<α=0.05) from an analysis of variance.
FIG. 13. Growth inhibition of Synechocystis sp. PCC 6803 by structural analogues of methyl-plastoquinone-9. Synechocystis sp. PCC6803 cells were grown in liquid BG-11 medium containing […] (80 μE m^−2 s^−1; 24-hour days; 30° C.). Cell growth was monitored spectrophotometrically at 700 nm.
FIG. 15. Growth curve of Synechocystis treated with analogues grown photomixotrophically and photoautotrophically. Wild-type Synechocystis was grown in BG-11 and either with 5 mM glucose for photomixotrophic or w/o for photoautotrophic with treatment of either 0, 10 or 25 μM of the corresponding methylplastoquinone analog w/ 0.095% EtOH final and grown at a continuous light intensity of 50μ photons m^−2s^−1 at 30° C. with shaking 125 rpm. Data are means of 2 biological replicates ±SD.
Several analogues of Methylplastoquinone (FIG. 14) were tested for their ability to act as herbicides. Synechocystis were grown photomixotrophically (BG-11 plus 5 mM glucose) and photoautotrophically (BG-11 without glucose) at a continuous light intensity of 50μ photons m^−2s^−1 at 30° C. with shaking 125 rpm. The cultures were further treated with 0, 10, or 25 μM Doruquinone (DQ), 2,6-dimethly-1,4-benzoquinone (DMBQ), 2,6-dimethoxy-1,4-benzoquinone (DMOBQ), 2,6-dichloro-1,4-benzoquinone (DCBQ), or 2-chloro-1,4-benzoquinone (CBQ), each with […] ethanol.

The test system of assay [2] is Arabidopsis. In words: Growth of Arabidopsis plants on MS medium containing the compound. The class given is in vivo, Arabidopsis thaliana (Col-0). As to conditions: 1% sucrose, 10-100 μM, applied at 2 to 50 times lower concentrations than standard herbicides such as DCMU or glyphosate. As to the method:
as §1
Ten day-old Arabidopsis plants (Col-0) were grown on MS medium containing 1% sucrose (w/v), 0.095% EtOH, and 0, 10, 25, 50 or 100 μM methyl-plastoquinone analogues in 12-h days (photon flux of 110 μmol m^−2s^−1) at 22° C.

In assay [3] the test system is Arabidopsis. In words: Accumulation of methyl-plastoquinone-9 in dexamethasone-induced plastid-targeted COQ5 Arabidopsis transgenics. The note with it: transgenics are seedling lethal. Format: in vivo, Arabidopsis thaliana.
Assay [4] concerns Synechocystis. In words: Accumulation of methyl-plastoquinone-9 in COQ5-expressing Synechocystis DPhQ-MT knockout cells. As to conditions: especially when cultured photoautotrophically; clones evolve suppressor mutations in COQ5. Format: cell-based, Synechocystis sp. PCC 6803. The source says:
For expression in Synechocystis, gene sll1653 and N-terminally truncated versions of At5g57300 (S23→M23) and At1g23360 (V28→M28) cDNAs were PCR amplified using primers that contained the NdeI(5′) and BglII(3′) restriction sites. PCR fragments were cloned into NdeI/BglII-digested pSynExp-2 expression vector (Sattler S E et al. “Characterization of tocopherol cyclases from higher plants and cyanobacteria. Evolutionary implications for tocopherol synthesis and function.” Plant Physiol. 132, 2184-2195 (2003)), and the resulting constructs were introduced into Synechocystis Δsll1653::aadA knockout cells (Lohmann A et al. 2006). Transformed cells were selected on BG-11 plates containing and chloramphenicol ([…]), and spectinomycin (15 μg/ml) at 22° C. in 12-hour days (70 μE m^−2s^−1). […] Induction and analyses of chlorophyll fluorescence were performed on one month-old dark-adapted plants using a FluorCam 800 MF imaging system (Photon Systems Instruments).
To further investigate why clade 2 C-methyltransferases evolved strict substrate preference, the effect of replacing cognate cyanobacterial and plastid-targeted DPhQ-MT with a bifunctional COQ5 counterpart was examined. […] These constructs were then introduced into a Synechocystis DPhQ-MT knockout strain and the growth of individual clones was scored via serial dilution assays (FIG. 3 A-B).

Turning to `O=C1C=C(Cl)C(=O)C(Cl)=C1` [2,6-dichloro-1,4-benzoquinone], the “inhibitory activity on growth of Synechocystis sp. PCC6803 cells (overall grade)” value (“inhibitory activity on growth” for short) in assay [1] is “low to marginal inhibitory activity”.
`COC1=CC(=O)C=C(OC)C1=O` [2,6-dimethoxy-1,4-benzoquinone]: in assay [1], the “inhibitory activity on growth” value is on record as “low to marginal inhibitory activity”.
On to `CC1=CC(=O)C=C(C)C1=O` [2,6-dimethyl-1,4-benzoquinone], for which, in assay [1] (25 microM), the “growth inhibition of Synechocystis sp. PCC6803 cells” value (“growth inhibition” below) is “complete growth inhibition”. Also, in assay [1], the “inhibitory activity on growth” value is “intermediate inhibitory activity”.
As for `O=C1C=CC(=O)C(Cl)=C1` [2-chloro-1,4-benzoquinone], the “growth inhibition” value in assay [1] (10 microM) and in assay [1] (25 microM) was “complete growth inhibition” in each case. The “inhibitory activity on growth” value in assay [1] was “as effective as duroquinone”.
With `CC1=C(C)C(=O)C(C)=C(C)C1=O` [duroquinone], the “growth inhibition” value in assay [1] (10 microM) and in assay [1] (25 microM) was “complete growth inhibition” each time. The “toxicity in Arabidopsis” value in assay [2] was “marked toxicity”.
For the compound `CC(C)=CCCC(C)=CCCC(C)=CCCC(C)=CCCC(C)=CCCC(C)=CCCC(C)=CCCC(C)=CCC/C(C)=C/CC1=C(C)C(=O)C(C)=C(C)C1=O` [methyl-plastoquinone-9], in assay [3], the “toxicity of accumulation in Arabidopsis COQ5 transgenics” value is “acutely toxic”. Besides, the “toxicity of accumulation in Synechocystis COQ5 transformants” value in assay [4] was “acutely toxic”.
